Experimental data: patent publication US20240228504A1, “SUBSTITUTED TRICYCLIC AMIDES, ANALOGUES THEREOF, AND METHODS USING SAME” (Arbutus Biopharma Corporation, priority 2020, published 2024)
pEC50: −log10 of the molar value.

tested on: HBV rcDNA in HepDE19 cells; assay: HepDE19 assay with bDNA quantitation of HBV rcDNA; assay type: cell-based, hepatitis B virus; settings: HepDE19 assay, inhibition of rcDNA formation, bDNA quantitation; read-out: DE-19bDNA EC50

In order of falling pEC50:
1. CN(C(=O)c1cc2c(Cl)cccc2[nH]1)C1CNCc2[nH]c(=O)c3cc(F)c(F)cc3c21 (single isomer, unassigned) [Compound 441, 4-Chloro-N-(8,9-difluoro-6-oxo-1,2,3,4,5,6-hexahydrobenzo[c][1,7]naphthyridin-1-yl)-N-methyl-1H-indole-2-carboxamide]  7.70
2. CC(O)c1cc(F)cc2[nH]c(C(=O)N(C)[C@@H]3COCc4[nH]c(=O)c5cc(F)c(F)cc5c43)cc12 (single isomer, unassigned) [Compound 354]  7.70
3. CN(C(=O)c1cc2ccc(Cl)cn2c1)C1CNCc2[nH]c(=O)c3cc(F)c(F)cc3c21 (single isomer, unassigned) [Compound 121, 6-Chloro-N-(8,9-difluoro-6-oxo-1,2,3,4,5,6-hexahydrobenzo[c][1,7]naphthyridin-1-yl)-N-methylindolizine-2-carboxamide]  7.52
4. CN(C(=O)c1cc2c(C#N)cc(F)cc2[nH]1)C1COCc2[nH]c(=O)c3cc(F)ccc3c21 (single isomer, unassigned) [Compound 383, 4-Cyano-6-fluoro-N-(8-fluoro-6-oxo-1,4,5,6-tetrahydro-2H-pyrano[3,4-c]isoquinolin-1-yl)-N-methyl-1H-indole-2-carboxamide]  7.40
5. CNc1nc2c(c3cc(F)c(F)cc13)C(N(C)C(=O)c1cc3cc(F)c(F)cc3[nH]1)COC2 (single isomer, unassigned) [Compound 333, N-(8,9-Difluoro-6-(methylamino)-1,4-dihydro-2H-pyrano[3,4-c]isoquinolin-1-yl)-5,6-difluoro-N-methyl-1H-indole-2-carboxamide]  6.28
6. CN1Cc2[nH]c(=O)c3cc(F)c(F)cc3c2C(N(C)C(=O)c2cc3ccccc3[nH]2)C1 (single isomer, unassigned) [Compound 62, N-(8,9-Difluoro-3-methyl-6-oxo-1,2,3,4,5,6-hexahydrobenzo[c][1,7]naphthyridin-1-yl)-N-methyl-1H-indole-2-carboxamide]  5.29
7. CN(C(=O)c1cc2ccc(F)cn2c1)C1CNCc2[nH]c(=O)c3cc(F)c(F)cc3c21 (single isomer, unassigned) [Compound 222, N-(8,9-Difluoro-6-oxo-1,2,3,4,5,6-hexahydrobenzo[c][1,7]naphthyridin-1-yl)-6-fluoro-N-methylindolizine-2-carboxamide]  5.15
8. CN(C(=O)c1cc(F)c(C(F)F)c(F)c1)C1COCc2[nH]c(=O)c3cc(F)ccc3c21 (single isomer, unassigned) [Compound 178, 4-(Difluoromethyl)-3,5-difluoro-N-(8-fluoro-6-oxo-1,4,5,6-tetrahydro-2H-pyrano[3,4-c]isoquinolin-1-yl)-N-methylbenzamide]  5.13
9. CN(C(=O)C1Nc2ccccc2C1(C)C)C1COCc2[nH]c(=O)c3cc(F)c(F)cc3c21 (stereo not drawn) [Compound 57, N-(8,9-Difluoro-6-oxo-1,4,5,6-tetrahydro-2H-pyrano[3,4-c]isoquinolin-1-yl)-N,3,3-trimethylindoline-2-carboxamide]  4.64

same assay, conditions: Hepatitis B virus, HepDE19, HepDE19 assay, inhibition of rcDNA formation, bDNA quantitation; read-out: DE-19bDNA EC50

In order of rising pEC50:
1. CN(C(=O)c1c[nH]c(=O)c(Cl)c1)[C@@H]1COCc2[nH]c(=O)c3cc(F)c(F)cc3c21 [Compound 215, (S)-5-Chloro-N-(8,9-difluoro-6-oxo-1,4,5,6-tetrahydro-2H-pyrano[3,4-c]isoquinolin-1-yl)-N-methyl-6-oxo-1,6-dihydropyridine-3-carboxamide]  4.70
2. CN(C(=O)c1cccc(Oc2ccccc2)c1)[C@@H]1COCc2[nH]c(=O)c3cc(F)c(F)cc3c21 [Compound 292, (S)-N-(8,9-Difluoro-6-oxo-1,4,5,6-tetrahydro-2H-pyrano[3,4-c]isoquinolin-1-yl)-N-methyl-3-phenoxybenzamide]  4.95
3. CN(C(=O)c1ccn2ccccc12)[C@@H]1COCc2[nH]c(=O)c3cc(F)c(F)cc3c21 [Compound 261, (S)-N-(8,9-Difluoro-6-oxo-1,4,5,6-tetrahydro-2H-pyrano[3,4-c]isoquinolin-1-yl)-N-methylindolizine-1-carboxamide]  5.19
4. CN(C(=O)c1ccc2[nH]ncc2c1)C1COCc2[nH]c(=O)c3cc(F)ccc3c21 (single isomer, unassigned) [Compound 449, N-(8-fluoro-6-oxo-1,4,5,6-tetrahydro-2H-pyrano[3,4-c]isoquinolin-1-yl)-N-methyl-1H-indazole-5-carboxamide]  5.25
5. CN(C(=O)c1cn2cc(Cl)ccc2n1)[C@@H]1COCc2[nH]c(=O)c3cc(F)ccc3c21 [Compound 52, (S)-6-Chloro-N-(8-fluoro-6-oxo-1,4,5,6-tetrahydro-2H-pyrano[3,4-c]isoquinolin-1-yl)-N-methylimidazo[1,2-a]pyridine-2-carboxamide]  5.39
6. CN(C(=O)c1ccc(C(F)(F)F)c(=O)[nH]1)[C@@H]1COCc2[nH]c(=O)c3cc(F)c(F)cc3c21 [Compound 247, (S)-N-(8,9-Difluoro-6-oxo-1,4,5,6-tetrahydro-2H-pyrano[3,4-c]isoquinolin-1-yl)-N-methyl-6-oxo-5-(trifluoromethyl)-1,6-dihydropyridine-2-carboxamide]  5.41
7. CCc1ccc(C(=O)N(C)[C@@H]2COCc3[nH]c(=O)c4cc(F)c(F)cc4c32)cc1F [Compound 147, (S)-N-(8,9-Difluoro-6-oxo-1,4,5,6-tetrahydro-2H-pyrano[3,4-c]isoquinolin-1-yl)-4-ethyl-3-fluoro-N-methylbenzamide]  5.48
8. CN(C(=O)c1cc2nc(Cl)ccc2[nH]1)[C@@H]1COCc2[nH]c(=O)c3cc(F)c(F)cc3c21 [Compound 206, (S)-5-Chloro-N-(8,9-difluoro-6-oxo-1,4,5,6-tetrahydro-2H-pyrano[3,4-c]isoquinolin-1-yl)-N-methyl-1H-pyrrolo[3,2-b]pyridine-2-carboxamide]  6.20
9. CN(C(=O)c1cc2cc(Br)cnc2[nH]1)[C@@H]1COCc2[nH]c(=O)c3cc(F)c(F)cc3c21 [Compound 192, (S)-5-Bromo-N-(8,9-difluoro-6-oxo-1,4,5,6-tetrahydro-2H-pyrano[3,4-c]isoquinolin-1-yl)-N-methyl-1H-pyrrolo[2,3-b]pyridine-2-carboxamide]  6.59
10. CN(C(=O)c1cc(F)c(Br)cc1F)[C@@H]1COCc2[nH]c(=O)c3cc(F)c(F)cc3c21 [Compound 245, (S)-4-Bromo-N-(8,9-difluoro-6-oxo-1,4,5,6-tetrahydro-2H-pyrano[3,4-c]isoquinolin-1-yl)-2,5-difluoro-N-methylbenzamide]  6.77
11. CN(C(=O)c1csc(Cl)c1)[C@@H]1COCc2[nH]c(=O)c3cc(F)c(F)cc3c21 [Compound 140, (S)-5-Chloro-N-(8,9-difluoro-6-oxo-1,4,5,6-tetrahydro-2H-pyrano[3,4-c]isoquinolin-1-yl)-N-methylthiophene-3-carboxamide]  7.00
12. CN(C(=O)c1ccc(C(F)(F)F)c(F)c1)C1COCc2[nH]c(=O)c3ccccc3c21 (racemic) [Compound 132, 3-Fluoro-N-methyl-N-(6-oxo-1,4,5,6-tetrahydro-2H-pyrano[3,4-c]isoquinolin-1-yl)-4-(trifluoromethyl)benzamide]  7.22
13. CN(C(=O)c1cnc(C(F)(F)F)c(Br)c1)[C@@H]1COCc2[nH]c(=O)c3cc(F)c(F)cc3c21 [Compound 365, (S)-5-Bromo-N-(8,9-difluoro-6-oxo-1,4,5,6-tetrahydro-2H-pyrano[3,4-c]isoquinolin-1-yl)-N-methyl-6-(trifluoromethyl)nicotinamide]  7.22
14. CN(C(=O)c1ccc(C(F)(F)F)c(F)c1)C1COCc2[nH]c(=O)c3cscc3c21 (racemic) [Compound 133, 3-Fluoro-N-methyl-N-(4-oxo-4,5,8,9-tetrahydro-6H-pyrano[3,4-b]thieno[3,4-d]pyridin-9-yl)-4-(trifluoromethyl)benzamide]  7.22
15. CN(C(=O)c1ccc(C#N)c(F)c1)[C@@H]1COCc2[nH]c(=O)c3cc(F)c(F)cc3c21 [Compound 100, (S)-4-Cyano-N-(8,9-difluoro-6-oxo-1,4,5,6-tetrahydro-2H-pyrano[3,4-c]isoquinolin-1-yl)-3-fluoro-N-methylbenzamide]  7.40
16. CN(C(=O)c1ccc2c(Cl)nn(C(F)F)c2c1)[C@@H]1COCc2[nH]c(=O)c3cc(F)c(F)cc3c21 [Compound 357, (S)-3-Chloro-N-(8,9-difluoro-6-oxo-1,4,5,6-tetrahydro-2H-pyrano[3,4-c]isoquinolin-1-yl)-1-(difluoromethyl)-N-methyl-1H-indazole-6-carboxamide]  7.52
17. CN(C(=O)c1cc2sc(Cl)cc2[nH]1)[C@@H]1COC(=O)c2[nH]c(=O)c3cc(F)c(F)cc3c21 [Compound 477, (S)-2-Chloro-N-(8,9-difluoro-4,6-dioxo-1,4,5,6-tetrahydro-2H-pyrano[3,4-c]isoquinolin-1-yl)-N-methyl-4H-thieno[3,2-b]pyrrole-5-carboxamide]  7.70
18. CN(C(=O)c1cc2c(CO)cc(F)cc2[nH]1)[C@@H]1COCc2[nH]c(=O)c3cc(F)c(F)cc3c21 [Compound 355, (S)-N-(8,9-Difluoro-6-oxo-1,4,5,6-tetrahydro-2H-pyrano[3,4-c]isoquinolin-1-yl)-6-fluoro-4-(hydroxymethyl)-N-methyl-1H-indole-2-carboxamide]  7.70
19. CN(C(=O)c1cc2c(Cl)cc(F)cc2[nH]1)[C@@H]1COCc2[nH]c(=O)c3cc(F)c(F)cc3c21 [Compound 343, (S)-4-Chloro-N-(8,9-difluoro-6-oxo-1,4,5,6-tetrahydro-2H-pyrano[3,4-c]isoquinolin-1-yl)-6-fluoro-N-methyl-1H-indole-2-carboxamide]  8.00
20. CN(C(=O)c1cc2c(C(F)F)cccn2c1)[C@@H]1COCc2[nH]c(=O)c3cc(F)c(F)cc3c21 [Compound 407, (S)-N-(8,9-difluoro-6-oxo-1,4,5,6-tetrahydro-2H-pyrano[3,4-c]isoquinolin-1-yl)-8-(difluoromethyl)-N-methylindolizine-2-carboxamide]  8.00
21. CN(C(=O)c1ccc(Br)cc1)[C@@H]1COCc2[nH]c(=O)c3cc(F)c(F)cc3c21 [Compound 131, (S)-4-Bromo-N-(8,9-difluoro-6-oxo-1,4,5,6-tetrahydro-2H-pyrano[3,4-c]isoquinolin-1-yl)-N-methylbenzamide]  8.00
